Literature values in US20210046025A1, “Injection for Protecting Ischemic Myocardium and Preparation Method thereof” (priority 2018, published 2021).

Legend:
[1] = tested on: ischemia/reperfusion myocardial infarction; details: large animal models, clinically relevant reperfusion (Min Xie et al., Circulation 2014)
[2] = first-pass metabolism elimination

Oral bioavailability [2]: very low | Solubility in oil and water: insoluble in both oil and water | Water solubility: poor
SMILES: O=C(CCCCCCC(=O)Nc1ccccc1)NO [N-suberoylanilide hydroxamic acid]
Effect on myocardial infarction area [1]: reduce myocardial infarction area
